Common to all, as to experiment: microbial growth inhibition plus red cell haemolysis – Idler compounds, first plate, PMBN-permeabilized strains, profiling panel (AID 2061108)
What all share (set-up): haemolysis: dose or concentration left out as unconfirmed

The test system of assay [1] is A. baumannii ATCC 17978 + PMBN growth inhibition, 100 uM. To be noted: A. baumannii plus PMBN growth inhibition, 100 µM; stronger effect = higher value.
For assay [2], the system named is A. baumannii ATCC 17978 growth inhibition, 100 uM. To be noted: S. aureus ATCC 9144 growth inhibition; measured here: A. baumannii ATCC 17978; at 100 µM; stronger effect = higher value.
Assay [3] has as its system C. albicans NCPF 3281 growth inhibition, 100 uM. Particulars: S. aureus ATCC 9144 growth inhibition; measured here: C. albicans NCPF 3281; at 100 µM; stronger effect = higher value.
In assay [4] the test system is E. coli NCTC 12923 + PMBN growth inhibition, 100 uM. Particulars: S. aureus ATCC 9144 growth inhibition; measured here: E. coli plus PMBN; at 100 µM; stronger effect = higher value.
For assay [5], the system named is E. coli NCTC 12923 growth inhibition, 100 uM. To be noted: E. coli NCTC 12923 growth inhibition, 100 µM; stronger effect = higher value.
Assay [6] relates to M. abscessus growth inhibition, 10 uM. Particulars: S. aureus ATCC 9144 growth inhibition; measured here: M. abscessus; at 10 µM.
Assay [7] concerns M. avium growth inhibition, 10 uM. Particulars: M. avium growth inhibition, 10 µM.
The subject of assay [8] is S. aureus ATCC 9144 growth inhibition, 100 uM. To be noted: S. aureus ATCC 9144 growth inhibition; at 100 µM; stronger effect = higher value.
The test system of assay [9] is red blood cell haemolysis. To be noted: stronger effect = higher value; dose or concentration not given here.

Structures are written as SMILES. The source made the active and inactive calls. How the calls were made is not given here.

In general, inhibition refers to the drop in the measured response relative to a control, in per cent. For the compound `COc1ccc2c(c1)nc(-c1c[nH]c3ccc(N4CCSCC4)cc13)c1[nH]ccc12`, the inhibition in assay [1] was found to be 96.3%; in [2] it was 98.1%; in assay [3], 95%; in assay [4] it was 97%; in [5], 9.46%; in [6], 0.136%. The results for the inhibition in assay [7] and in [8] were 3% and 98.1%, respectively. Besides, in assay [9], the haemolysis turned out to be 1.04%.

On to `O=C(N/N=C/c1ccc2cccc(O)c2n1)c1ccncc1`, for which the inhibition in assay [1] is 37.1%; in [2] it was 13.7%; in assay [3], -33.7%; in assay [4], -1.73%; in assay [5], 8.65%; in assay [6] it was -0.775%. Besides, the inhibition in [7] is -0.55%; in [8] it was 23.3% (inactive). Further, the haemolysis in assay [9] turned out to be 0.565%.

Consider `N#Cc1ccc(NC2Cc3cccc(O)c3C2)cc1C(F)(F)F` (stereo unspecified), for which the inhibition in assay [1] is 100%; in [2], 68.5%; in assay [3], 100%; in assay [4], 100%; in assay [5], 22.3%; in assay [6] it was -0.648%. Besides, the inhibition was -0.176% in [7] and 99.7% in [8]. The haemolysis in [9] turned out to be 2.84%.

With `COc1ccc(-c2ccc(CNc3ccnc(S(=O)(=O)F)c3)s2)cc1`, the inhibition in assay [1] was 38%; in [2] it was 8.21%; in assay [3], 98.4%; in [4], 14.7%; in assay [5], 5.81%; in assay [6] it was -0.879%. Further, the results for the inhibition in assay [7] and in assay [8] were -0.555% and 24.7%, respectively. For the same compound, in [9], the haemolysis turned out to be 2.61%.

As for `N#Cc1c(N2C[C@@H](CC(N)=O)[C@H](O)C2)nc2ccccc2c1C(F)(F)F`, the inhibition in [1] is 28.3%; in assay [2] it was -4.88%; in assay [3] it was -24.4%; in assay [4], 11.6%; in [5], 0.811%; in [6], -0.687%. In addition, the inhibition in [7] is 0.858%; in assay [8] it was 9.67% (inactive). The haemolysis in assay [9] amounted to 0.173%.

With `CCOc1ccc(-c2cc(=O)n(CC(=O)N3CCC(Cc4ccccc4)CC3)cn2)cc1`, the inhibition in assay [1] was 11%; in assay [2], -13.5%; in assay [3] it was -40.2%; in assay [4] it was 4.32%; in assay [5], -16.4%; in assay [6], -1.03%. Also, the inhibition in assay [7] is 0.214%; in [8] it was 5.33% (inactive). Besides, the haemolysis in assay [9] is 2.13%.

As to `Nc1ncnc2cc(-c3cccc(S(=O)(=O)NC(=O)C4CCCN4)c3)sc12` (stereo unspecified), the inhibition in assay [1] was -10.6%; in assay [2] it was -13%; in assay [3], -16.7%; in [4] it was -40.7%; in assay [5] it was -67.2%; in [6], -0.89%. Moreover, the inhibition in [7] was 5.56%; in assay [8], 48.7% (inactive). Moreover, in assay [9], the haemolysis is 0.251%.

In the case of `O=C(Nc1ccc(OC2CCCCC2)cc1)c1ccc(-c2nn[nH]n2)cc1`, the inhibition in assay [1] was 17.1%; in assay [2] it was -15.8%; in assay [3], 6.07%; in assay [4], 6.17%; in [5], 1.08%; in [6], -1.07%. Moreover, the inhibition is -0.389% in assay [7] and 7.17% (inactive) in assay [8]. In addition, in assay [9], the haemolysis was 0.0779%.

With `N#Cc1ccc(NC2Cc3cccc(O)c3C2)cc1Cl` (stereo unspecified), the inhibition in assay [1] is 101%; in assay [2], 65.2%; in assay [3] it was 100%; in [4], 101%; in [5], 25%; in assay [6], -0.909%. In addition, the inhibition was 0.34% in assay [7] and 100% in [8]. The haemolysis in assay [9] was determined as 0.539%.
